In patent publication US20140378496A1, “OPIOID […] 3-HYDROXYA[…] TREATING PAIN” (SLX PHARMACEUTICALS, LLC, priority 2011, published 2014):

System: visceral pain model in mice
Experiment: Acetic acid writhing protocol (abdominal contortion test), visceral pain model in mice
Format: in vivo, male Swiss Webster mice
Conditions: 50-400 mg/kg PO; lowest dose (50 mpk) removed as apparent outlier
Procedure: In order to test the analgesic activity of the combination of an opioid (hydrocodone) and 3-hydroxyacetanilide, both compounds were tested separately and in combination in a visceral pain model in mice.
Experimental animals: One hundred fifty-five 4-week old, male Swiss Webster mice (stock number 024) were purchased from Charles River Laboratories (Portage, Mich.). The study animals were allowed an acclimation period of 1-2 weeks prior to dose initiation. The mice were housed 4-6 per cage and maintained in the Innovive caging system (San Diego, Calif.) upon arrival at. In accordance with the Guide for Care and Use of Laboratory Animals (Eighth Edition), mouse rooms were maintained at temperatures of 66-75 degrees Fahrenheit and relative humidity between 30% and 70%. Cages were monitored daily to ensure the Innovive system maintained 50 air changes per hour and positive pressure. The rooms were lit by artificial light for 12 hours each day (7:00 AM -7:00 PM). […]
Animals were allowed to acclimate to the testing room for a minimum of 1 hour prior to the experiment. […] The number of writhes over a 5 min duration were counted (5-10 and 15-20 min post-dose) starting 5 min after acetic acid administration. […]

CC(=O)Nc1cccc(O)c1 [3-hydroxyacetanilide]
shape of dose response curve (% AA vs dose): bell-shaped
